# Patent US12678446B2 (PFIZER INC., priority 2020, dated 2026)
# Legend:
# [1] = cell toxicity CC50; assay type: cell-based; details: human; Hep-G2 cells; mean of at least two experiments; read-out: Cell Cytotoxicity CC50
# [2] = tested on: RSV (RSV A2 ECACC, 0709161v); assay: RSV plaque reduction assay; assay type: cell-based, respiratory syncytial virus; details: human respiratory syncytial virus, HepG2, read-out: RSV A2 Plaque EC50, RSV A2 in Hep-G2 cells; mean of at least two experiments unless noted (n = 1)
# Outline: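 Hep-G2 monolayers infected with 100 PFU/well RSV A2 premixed with eight serial compound dilutions (2 h, 37° C.), then kept 2 days under CMC overlay with compound in DMEM/2% FBS. Plaques immunostained (HRP/TrueBlue) and counted; % infection versus virus control gives EC50, mean of at least two experiments, rounded.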
SMILES,CC50 [1],EC50 [2]
"O=C(N[C@H]1N=C(c2ccccc2)c2ccccc2NC1=O)c1c(-c2cccnc2F)nn2c1OCCC2 [Example 136, 2-(2-Fluoropyridin-3-yl)-N-[(3S)-2-oxo-5-phenyl-1,3-dihydro-1,4-benzodiazepin-3-yl]-6,7-dihydro-5H-pyrazolo[5,1-b][1,3]oxazine-3-carboxamide]",> 25000 nM,182 nM
"CCn1cc(-c2nn3c(c2C(=O)N[C@H]2N=C(c4ccccc4)c4cccc(F)c4NC2=O)OCCC3)cn1 [Example 99, 2-(1-Ethylpyrazol-4-yl)-N-[(3S)-9-fluoro-2-oxo-5-phenyl-1,3-dihydro-1,4-benzodiazepin-3-yl]-6,7-dihydro-5H-pyrazolo[5,1-b][1,3]oxazine-3-carboxamide]",> 25000 nM,71 nM
"O=C(N[C@H]1N=C(c2ccccc2)c2ccccc2NC1=O)c1c(-c2ccccc2)nn2c1OCCC2 [Example 22, N-[(3S)-2-oxo-5-phenyl-1,3-dihydro-1,4-benzodiazepin-3-yl]-2-phenyl-6,7-dihydro-5H-pyrazolo[5,1-b][1,3]oxazine-3-carboxamide]",> 25000 nM,140 nM
"CCn1cc(-c2nn3c(c2C(=O)N[C@H]2N=C(c4ccccc4)c4cccc(F)c4NC2=O)O[C@H](C)CC3)cn1 [Example 84, (5R)-2-(1-Ethylpyrazol-4-yl)-N-[(3S)-9-fluoro-2-oxo-5-phenyl-1,3-dihydro-1,4-benzodiazepin-3-yl]-5-methyl-6,7-dihydro-5H-pyrazolo[5,1-b][1,3]oxazine-3-carboxamide]",> 25000 nM,70 nM
"Cn1ncc2c(-c3nn4c(c3C(=O)N[C@H]3N=C(c5ccccc5)c5ccccc5NC3=O)OCCC4)cccc21 [Example 149, 2-(1-Methylindazol-4-yl)-N-[(3S)-2-oxo-5-phenyl-1,3-dihydro-1,4-benzodiazepin-3-yl]-6,7-dihydro-5H-pyrazolo[5,1-b][1,3]oxazine-3-carboxamide]",> 25000 nM,194 nM
"Cc1ccc(-c2nn3c(c2C(=O)N[C@H]2N=C(c4ccccc4)c4cccc(F)c4NC2=O)O[C@H](C)CC3)c(F)n1 [Example 73, (5R)-2-(2-Fluoro-6-methylpyridin-3-yl)-5-methyl-N-[(3S)-9-fluoro-2-oxo-5-phenyl-1,3-dihydro-1,4-benzodiazepin-3-yl]-6,7-dihydro-5H-pyrazolo[5,1-b][1,3]oxazine-3-carboxamide]",> 25000 nM,91 nM
"CCS(=O)(=O)N1CCC(c2nn3c(c2C(=O)N[C@H]2N=C(c4ccccc4)c4cccc(F)c4NC2=O)O[C@H](C)CC3)CC1 [Example 201, (5R)-2-(1-Ethylsulfonylpiperidin-4-yl)-N-[(3S)-9-fluoro-2-oxo-5-phenyl-1,3-dihydro-1,4-benzodiazepin-3-yl]-5-methyl-6,7-dihydro-5H-pyrazolo[5,1-b][1,3]oxazine-3-carboxamide]",> 25000 nM,49 nM
"CSc1ccc(-c2nn3c(c2C(=O)N[C@H]2N=C(c4ccccc4)c4cccc(F)c4NC2=O)OCCC3)c(F)c1 [Example 193, 2-(2-Fluoro-4-methylsulfanylphenyl)-N-[(3S)-9-fluoro-2-oxo-5-phenyl-1,3-dihydro-1,4-benzodiazepin-3-yl]-6,7-dihydro-5H-pyrazolo[5,1-b][1,3]oxazine-3-carboxamide]",> 25000 nM,19 nM
"CCc1ccc(-c2nn3c(c2C(=O)N[C@H]2N=C(c4ccccc4)c4cccc(F)c4NC2=O)O[C@H](C)CC3)cn1 [Example 74, (5R)-2-(6-Ethylpyridin-3-yl)-5-methyl-N-[(3S)-9-fluoro-2-oxo-5-phenyl-1,3-dihydro-1,4-benzodiazepin-3-yl]-6,7-dihydro-5H-pyrazolo[5,1-b][1,3]oxazine-3-carboxamide]",> 25000 nM,39 nM
"C[C@@H]1COc2c(C(=O)N[C@H]3N=C(c4ccccc4)c4cccc(F)c4NC3=O)c(-c3ccccc3F)nn2C1 [Example 9, (6S)-N-[(3S)-9-fluoro-2-oxo-5-phenyl-1,3-dihydro-1,4-benzodiazepin-3-yl]-2-(2-fluorophenyl)-6-methyl-6,7-dihydro-5H-pyrazolo[5,1-b][1,3]oxazine-3-carboxamide]",> 18800 nM,30 nM
"CN(C)CC1CCn2nc(-c3ccccc3F)c(C(=O)N[C@H]3N=C(c4ccccc4)c4cccc(F)c4NC3=O)c2O1 (stereo partly drawn) [Example 166, 5-[(Dimethylamino)methyl]-N-[(3S)-9-fluoro-2-oxo-5-phenyl-1,3-dihydro-1,4-benzodiazepin-3-yl]-2-(2-fluorophenyl)-6,7-dihydro-5H-pyrazolo[5,1-b][1,3]oxazine-3-carboxamide]",> 25000 nM,201 nM
"CC(O)Cc1ccc(-c2nn3c(c2C(=O)N[C@H]2N=C(c4ccccc4)c4cccc(F)c4NC2=O)O[C@H](C)CC3)cn1 (stereo partly drawn) [Example 78, (5R)-2-[6-(2-Hydroxypropyl)pyridin-3-yl]-5-methyl-N-[(3S)-9-fluoro-2-oxo-5-phenyl-1,3-dihydro-1,4-benzodiazepin-3-yl]-6,7-dihydro-5H-pyrazolo[5,1-b][1,3]oxazine-3-carboxamide]",> 25000 nM,217 nM
"C[C@@H]1CCn2nc(-c3ccc(N4C[C@@H]5C[C@H]4CO5)nc3F)c(C(=O)N[C@H]3N=C(c4ccccc4)c4cccc(F)c4NC3=O)c2O1 (single isomer, unassigned) [Example 88]",> 25000 nM,146 nM
"C[C@@H]1CCn2nc(-c3ccc(CO)cc3F)c(C(=O)N[C@H]3N=C(c4ccccc4)c4ccccc4NC3=O)c2O1 [Example 154, (5R)-2-[2-Fluoro-4-(hydroxymethyl)phe-nyl]-5-methyl-N-[(3S)-2-oxo-5-phenyl-1,3-dihydro-1,4-benzodiazepin-3-yl]-6,7-dihydro-5H-pyrazolo[5,1-b][1,3]oxazine-3-carboxamide]",> 25000 nM,91 nM
"O=C(N[C@H]1N=C(c2ccccc2)c2cccc(F)c2NC1=O)c1c(-c2ccc(F)cc2F)nn2c1SCCC2 [Example 34, 2-(2,4-Difluorophenyl)-N-[(3S)-9-fluoro-2-oxo-5-phenyl-2,3-dihydro-1H-1,4-benzodiazepin-3-yl]-5H,6H,7H-pyrazolo[3,2-b][1,3]thiazine-3-carboxamide]",> 25000 nM,143 nM
"COC1COc2c(C(=O)N[C@H]3N=C(c4ccccc4)c4cccc(F)c4NC3=O)c(-c3ccccc3F)nn2C1 (stereo partly drawn) [Example 175, 2-(2-Fluorophenyl)-6-methoxy-N-[(3S)-9-fluoro-2-oxo-5-phenyl-1,3-dihydro-1,4-benzodiazepin-3-yl]-6,7-dihydro-5H-pyrazolo[5,1-b][1,3]oxazine-3-carboxamide]",> 25000 nM,61 nM
"Cc1ccccc1-c1nn2c(c1C(=O)N[C@H]1N=C(c3ccccc3)c3cccc(F)c3NC1=O)OCCC2 [Example 6, N-[(3S)-9-Fluoro-2-oxo-5-phenyl-1,3-dihydro-1,4-benzodiazepin-3-yl]-2-(2-methylphenyl)-6,7-dihydro-5H-pyrazolo[5,1-b][1,3]oxazine-3-carboxamide]",> 25000 nM,165 nM
"Cc1cc(NC(C)C)ncc1-c1nn2c(c1C(=O)N[C@H]1N=C(c3ccccc3)c3cccc(F)c3NC1=O)O[C@H](C)CC2 [Example 92, (5R)-5-Methyl-2-[4-methyl-6-(propan-2-ylamino)pyridin-3-yl]-N-[(3S)-9-fluoro-2-oxo-5-phenyl-1,3-dihydro-1,4-benzodiazepin-3-yl]-6,7-dihydro-5H-pyrazolo[5,1-b][1,3]oxazine-3-carboxamide]",> 25000 nM,131 nM
"CCN(CC)Cc1ccc(-c2nn3c(c2C(=O)N[C@H]2N=C(c4ccccc4)c4cccc(F)c4NC2=O)OCCC3)c(F)c1 [Example 102, 2-[4-(Diethylaminomethyl)-2-fluorophenyl]-N-[(3S)-9-fluoro-2-oxo-5-phenyl-1,3-dihydro-1,4-benzodiazepin-3-yl]-6,7-dihydro-5H-pyrazolo[5,1-b][1,3]oxazine-3-carboxamide]",> 25000 nM,135 nM
"CC(C)Nc1ccc(-c2nn3c(c2C(=O)N[C@H]2N=C(c4ccccc4)c4cccc(F)c4NC2=O)O[C@H](C)CC3)cn1 [Example 67, (5R)-N-[(3S)-9-fluoro-2-oxo-5-phenyl-1,3-dihydro-1,4-benzodiazepin-3-yl]-2-[6-(isopropylamino)-3-pyridyl]-5-methyl-6,7-dihydro-5H-pyrazolo[4,1-b][1,3]oxazine-3-carboxamide]",> 25000 nM,19 nM
"C[C@@H]1CCn2nc(-c3ccc(CO)nc3)c(C(=O)N[C@H]3N=C(c4ccccc4)c4cccc(F)c4NC3=O)c2O1 [Example 155, (5R)-N-[(3S)-9-fluoro-2-oxo-5-phenyl-1,3-dihydro-1,4-benzodiazepin-3-yl]-2-[6-(hydroxymethyl)pyri-din-3-yl]-5-methyl-6,7-dihydro-5H-pyrazolo[5,1-b][1,3]oxazine-3-carboxamide]",> 25000 nM,219 nM
"O=C(N[C@H]1N=C(c2ccccc2)c2ccccc2NC1=O)c1c(-c2cccnc2)nn2c1OCCC2 [Example 16, N-[(3S)-2-Oxo-5-phenyl-1,3-dihydro-1,4-benzodiazepin-3-yl]-2-pyridin-3-yl-6,7-dihydro-H-pyrazolo[5,1-b][1,3]oxazine-3-carboxamide]",> 25000 nM,454 nM
"O=C(N[C@H]1N=C(c2ccccc2)c2ccccc2NC1=O)c1nn2c(c1-c1ccc(NC3CC3)nc1F)OCCC2 [Example 38, 3-[6-(Cyclopropylamino)-2-fluoropyridin-3-yl]-N-[(3S)-2-oxo-5-phenyl-1,3-dihydro-1,4-benzodiazepin-3-yl]-6,7-dihydro-5H-pyrazolo[5,1-b][1,3]oxazine-2-carboxamide]",> 25000 nM,189 nM
